Results reported in patent publication US8603762B2 (priority 2008, dated 2013).
Where two headings read alike, the source gives them in different places.

What was measured:
Format in all cases: cell-based
[1] = tested on: HEK293T Gα16gustducin44 cells (that do not express TAS2R46)
Procedure: (§1) At day 0, the HEK293T cell line expressing Gα16-gustducin44 and a TAS2R46 bitter taste receptor formed as described in examples 2b or 2c was seeded in antibiotic-free growth medium (standard DMEM with 10% (v/v) heat-inactivated fetal bovine serum, 2 mM L-glutamine[…]) into black wall/clear bottom 96-well plates, coated with poly(ethylenimine) (0.005% v/v) at a concentration of 15,000 cells per well and incubated for 48 hours in humidified atmosphere (37° C., 5% CO2).
(§2) At the time of the assay, the growth medium was discarded and the cells were in humidified atmosphere (37° C., 5% CO2) for 1 hour with 50 μl of loading buffer consisting of 1.5 μM Fluo-4 AM and […] probenicid (Sigma-Aldrich, St. Louis, Mo., US) in DMEM.
(§3) Afterwards, the 96-well plate was washed 5 times with 100 μl of assay buffer (130 mM NaCl, 5 mM KCl, 10 mM HEPES, 2 mM CaCl2, and 5 mM dextrose, pH 7.4) per well, using an automated plate washer (BioTek). The plate was further incubated for 30 minutes at room temperature in the dark to allow for complete de-esterification of the Fluo-4. Afterwards the plate was washed 5 times with 100 μl of assay buffer per well, and reconstituted with 100 μl of assay buffer per well.
(§4) For assay reading, the plate was placed in a Fluorometric Imaging Plate Reader (FLIPR) (FLIPR-TETRA™, Molecular Devices, Sunnyvale, Calif., US), and receptor activation was initiated by addition of 20 μl of a tenfold concentrated agonist stock solution (to give the desired agonist end concentration when added to the 180 microliter assay buffer volume), which was prepared in assay buffer.
(§5) Fluorescence was continuously monitored for 20 seconds to give a signal baseline (averaged to give F0) prior to agonist addition and for 120 seconds after agonist addition. The change in signal divided by F0 gives ΔF/F0 indicated in the table, with ΔF being the maximum signal occurring within the 120 seconds minus the minimum signal (occurring within the 120 seconds after agonist addition.
(§6) The obtained calcium signals were corrected for the response of cells expressing only the G Protein α subunit (Gα16-gustducin44) and normalized to the fluorescence of cells prior to the stimulus using ΔF/F0 (Fmax−Fmin/F0).

human TAS2R46 [2] = target: T1, human TAS2R46 (Homo sapiens, UniProt P59540)
T1 construct: RSS tag (first 45 amino acids of rat somatostatin receptor subtype 3, plus EcoRI site residues) (N); expressed in transfected cells
T1 sequence (P59540 with tags, fused parts or gaps): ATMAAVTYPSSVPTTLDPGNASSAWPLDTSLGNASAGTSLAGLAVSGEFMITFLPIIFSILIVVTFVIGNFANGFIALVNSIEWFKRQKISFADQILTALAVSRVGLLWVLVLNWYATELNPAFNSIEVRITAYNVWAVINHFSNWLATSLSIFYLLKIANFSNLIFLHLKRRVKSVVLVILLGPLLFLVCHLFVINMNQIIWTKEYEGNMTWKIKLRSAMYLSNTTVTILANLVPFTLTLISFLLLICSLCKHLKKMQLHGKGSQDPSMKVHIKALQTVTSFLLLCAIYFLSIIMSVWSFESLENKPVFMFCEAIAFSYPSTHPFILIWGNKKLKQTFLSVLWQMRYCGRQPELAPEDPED
Procedure: as §1, §2, §3, §4, §5, §6

human TAS2R46 [3] = target: T1, human TAS2R46; experiment: Fluo-4 calcium assay, HEK293T/Gα16-gustducin44 cells transiently expressing TAS2R46
Procedure: In a second tube, 0.3 μl of Lipofectamine 2000 was diluted in 12.5 μl of DMEM and incubated for 5 min at room temperature. After the 5 min, both solutions were mixed and incubated for 20 min at RT. […] This mixture was then replaced with an antibiotic-free, serum-containing DMEM. […]
as §4
Fluorescence was continuously monitored for 20 seconds to give a signal baseline (averaged to give F0) prior to agonist addition and for 120 seconds after agonist addition. […]
as §6

[4] = tested on: more than 15 human TAS2Rs; experiment: Activation of other human TAS2Rs; conditions: more than 15 human TAS2Rs tested

In the case of `COc1ccc2c(c1)[C@]13CCCC[C@@H]1[C@H](C2)N(C)CC3` [dextromethorphan], the “Neg. Control ΔF/F0” value ([1]; dextromethorphan 0.254 μM, cells expressing only Gα16gustducin44) is reported as 0.050, the “Neg. Control ΔF/F0” value ([1]; dextromethorphan 0.508 μM, cells expressing only Gα16gustducin44) is reported as 0.044 and the “Neg. Control ΔF/F0” value ([1]; dextromethorphan 1.016 μM, cells expressing only Gα16gustducin44) is reported as 0.053. The “Neg. Control ΔF/F0” value ([1]; dextromethorphan 2.031 μM, cells expressing only Gα16gustducin44) was 0.038, the “Neg. Control ΔF/F0” value ([1]; dextromethorphan 4.063 μM, cells expressing only Gα16gustducin44) was 0.041 and the “Neg. Control ΔF/F0” value ([1]; dextromethorphan 8.125 μM, cells expressing only Gα16gustducin44) was 0.044. The “Neg. Control ΔF/F0” value ([1]; dextromethorphan 16.250 μM, cells expressing only Gα16gustducin44) was 0.067, the “Neg. Control ΔF/F0” value ([1]; dextromethorphan 65.000 μM, cells expressing only Gα16gustducin44) was 0.312 and the “change in signal in the negative control (in words)” value ([1]; host cells expressing only Gα16-gustducin44) was “No significant change”. For the same compound, the “calcium signaling upon addition of agonist (in words)” value (human TAS2R46 [2]; cells stably expressing human TAS2R46) was “significant increase in calcium signaling”, the EC50 (human TAS2R46 [2]; stable cell line, nonlinear regression of ΔF/F0, read-out: calculated EC50 value for TAS2R46) was 31 µM and the “calcium signaling upon addition of agonist (in words)” value (human TAS2R46 [3]) was “significant concentration-dependent increase in calcium signaling”. The “activation of other human TAS2Rs (in words)” value [4] was “not to be activated”.

`O=C1C[C@@H]2OCC=C3CN4CC[C@]56c7ccccc7N1[C@H]5[C@H]2[C@H]3C[C@H]46` [strychnine] was tested, and the “Neg. Control ΔF/F0” value ([1]; strychnine 0.977 μM, cells without TAS2R46) was 0.060, the “Neg. Control ΔF/F0” value ([1]; strychnine 1.953 μM, cells without TAS2R46) was 0.065 and the “Neg. Control ΔF/F0” value ([1]; strychnine 3.906 μM, cells without TAS2R46) was 0.071. For the same compound, the “Neg. Control ΔF/F0” value ([1]; strychnine 7.813 μM, cells without TAS2R46) was 0.070, the “Neg. Control ΔF/F0” value ([1]; strychnine 15.63 μM, cells without TAS2R46) was 0.063 and the “Neg. Control ΔF/F0” value ([1]; strychnine 31.25 μM, cells without TAS2R46) was 0.088. The “Neg. Control ΔF/F0” value ([1]; strychnine 62.50 μM, cells without TAS2R46) was 0.091, the “Neg. Control ΔF/F0” value ([1]; strychnine 125.0 μM, cells without TAS2R46) was 0.088 and the “Neg. Control ΔF/F0” value ([1]; strychnine 250.0 μM, cells without TAS2R46) was 0.181.
